Measurements published in patent publication US8221773B2, “Hydrogels and uses thereof” (University of Delaware, priority 2004, dated 2012).
Entries after “also recorded” stand apart in the source; their conditions may differ. Where no end group is shown, it is not given here.

Key:
NIH 3T3 fibroblasts = assay: 3H thymidine cell seeding / proliferation assay; format: cell-based, mouse; details: 2 wt. % hydrogel, 48 hours
Excerpt: A quantitative assay that could be used to measure the rate of cell proliferation was developed. This allows gels having different material properties and constituent peptide sequences to be compared in terms of how well they support proliferation. Standard colorimetric assays such as the MTT and XTT have proven unsuitable for use with hydrogels of the invention. These assays rely on the ability of cells to metabolize tetrazolium derivatives to their corresponding colored formazan analogs. The analogs permeate into the hairpin hydrogel and become immobilized making subsequent quantification by UV spectroscopy unreliable. This problem has been addressed by utilizing ^3H thymidine-based assays in which thymidine is incorporated into proliferating cells undergoing DNA replication. […] The assay is two-fold. […] Second, a proliferation rate may be determined for a given material by seeding the cells (at optimal density) onto the material and determining the number of cells undergoing DNA replication at discrete time points up to 48 hours when confluency is reached. […] Unincorporated thymidine may be washed out (washes may be assayed until ^3H thymidine is no longer detected) and the cells sacrificed for scintillation counting. […] Therefore, for each new material, similar cell seeding experiments may be performed before rates of proliferation are determined. […]

[1] = Oscillatory rheology of peptide hydrogels (storage and loss moduli); format: physicochemical; details: 2 wt %, pH 9, 20° C, 6 Hz, 1% strain
[2] = system: fibroblasts (NIH 3T3, mouse); assay: Fibroblast adhesion and proliferation on hydrogel by optical microscopy; format: cell-based
Protocol: These cells were used as a model system because of their importance in connective tissue development and their easily distinguished morphology when adhered to the hydrogel scaffold. Qualitative studies were performed in which cells were added to either polystyrene control wells or wells containing a uniform slab (3 mm thick) of MAX1-hydrogel. Cell adhesion was qualitatively monitored via direct observation of cell spreading after four hours from the time of initial cell seeding by optical microscopy (a quantitative cell attachment assay is described below, see also Akiyama, S. K. Functional analysis of cell adhesion: Quantitation of cell-matrix attachment, 2002; Vol. 69, pp 281-296). Non-adhered fibroblasts have rounded morphologies and adhered fibroblasts have spread morphologies Proliferation was measured both qualitatively by optical microscopy and quantitatively by a ^3H thymidine-based cell seeding assay as described below. Hydrogels were prepared in 48 well tissue culture plates by either one of the following protocols. Protocol 1: MAX1 was dissolved in water (resulting in an acidic solution, pH~5) and an equal volume of buffer (pH 9, 250 mM borate, 20 mM NaCl) was added at room temperature to induce folding/self-assembly resulting in a 2 wt % hydrogel. The resulting gel was bathed in DMEM containing 10% calf serum and […] gentamicin. This allowed media to permeate throughout the gel and adjust the pH to 7.3 The storage moduli (rigidity) of gels prepared by protocol 1 are about 1600 Pa. Protocol 2: MAX1 was dissolved in water and an equal volume of serum free DMEM containing […] gentamicin was added to induce folding/self-assembly affording 2 wt % hydrogels. Depending on the experiment, DMEM containing calf serum can then be added to introduce serum proteins. The storage moduli of gels prepared by protocol 2 are about 1200 Pa. […] Proliferation of the cells occurs until confluency is reached, usually around 72 hours if 10^4 cells are initially plated, FIG. 16B. Cells remain viable for at least a month as long as fresh media is provided (we stopped the assay after 1 month). Cells added to control wells containing no gel show similar behavior, FIGS. 16 C and D. In FIGS. 16A-D, cells are plated in the presence of DMEM containing 10% calf serum. Serum proteins may help mediate cellular adhesion to the hydrogel by first coating the scaffold. To determine if the hydrogel scaffold alone is conducive to cell adhesion, cells were plated onto 2 wt. % hydrogels in the absence of serum. […] The incorporation of cell binding epitopes in peptides used in hydrogel formation may be used to enhance cell adhesion in the absence of serum.

Sequence: VKVKVKVK V^DPPT KVKVKVKV-NH2 (not fully specified (C-terminus)) [MAX1]
- optimal cell seeding density for 2 day proliferation assays (NIH 3T3 fibroblasts): 40,000 fibroblasts
- cell proliferation on hydrogel versus tissue culture polystyrene control (NIH 3T3 fibroblasts; 3H thymidine counts): more cells have grown on the hydrogel than on the control surface; also recorded: higher than the control
- gel storage modulus after 30 minutes [1]: ~600 Pa
- time to confluency ([2]; 2 wt % gel, 10^4 cells initially plated, DMEM with 10% calf serum): around 72 hours
- fibroblast adhesion to gel surface in the presence of serum ([2]; 2 wt % gel, DMEM with 10% calf serum, after four hours): adhered; also recorded: efficiently attached
- fibroblast attachment and spreading in the absence of serum, compared to serum containing cultures ([2]; 2 wt. % hydrogels, after about four hours): to a lesser extent; also recorded: less efficiently
- cell proliferation after addition of serum at four hours ([2]; 2 wt. % hydrogels, plated without serum, 72 hours): near confluency
- time cells remain viable on gel ([2]; fresh media provided): ≥ 1 month
